For one series, the target named is C. parvum PI(4)K (Cryptosporidium parvum, UniProt Q5CVD3). The series is described as follows: CpPI(4)K enzymatic assay (Transcreener ADP2 FP). In kind it is biochemical. The source says: The full-length coding sequence of C. parvum PI(4)K (cgd8_4500, 1114 amino acids) was codon-optimized for baculovirus expression, synthesized and cloned into pFastBac-HTb (Invitrogen 10584-027) in frame with the amino-terminal polyhistidine tag using the BamHI and Hindlll restriction sites. Recombinant pFastBacHTb-CpPI(4)K bacmid clones were generated by site-specific transposition in E. coli DH10Bac (Invitrogen 10361-012). The bacmid sequence was confirmed by direct DNA sequencing to confirm a lack of mutations across the whole gene. The subsequent steps for bacmid isolation, transfection and selection of the recombinant viruses were performed according to the manufacturer's protocol (Bac-to-Bac system #10359, Invitrogen).
SF9 cells, cultured in SF-900 III serum-free medium, were transfected with recombinant baculovirus at 1/200 (v/v) and incubated at 27° C. for 72 h. The pellets were collected after centrifugation and re-suspended in cell lysis buffer (20 mM Tris-HCl, pH 7.5, 300 mM NaCl, 1 mM DTT, 20 mM imidazole, 0.01% Triton X-100 and 1× complete protease inhibitor cocktail without EDTA (Roche Diagnostics 04693116001)). The cell suspension was lysed by sonication and the clarified supernatant was loaded onto a 1 ml HisTrap affinity column (GE Healthcare) pre-equilibrated with buffer A (20 mM Tris-HCl, pH 7.5, 300 mM NaCl, 1 mM DTT, 20 mM Imidazole, and 1× complete protease inhibitor cocktail without EDTA). The column was washed with buffer B (buffer A containing 45 mM imidazole) and the bound protein of interest was eluted with buffer C (buffer A with 90 mM imidazole). The fractions containing CpPI(4)K were pooled, concentrated using Amicon Ultra-15 and purified by a gel-filtration column (Hi-Load 26/60 Superdex 200, GE Healthcare) equilibrated with 20 mM Tris, pH 7.5, 300 mM NaCl, 1 mM DTT and 1× protease inhibitor cocktail without EDTA. The concentrations of the purified protein (Mw 132.39 kda) was determined by using the protein molar extinction coefficient (ε280 nm=133,810 M^−1 cm^−1). Aliquots were flash frozen in liquid nitrogen and immediately stored at −80° C.
The CpPI(4)K enzymatic assay was performed as described earlier with a some modifications (McNamara et al., 2013). Briefly, L-α-phosphatidylinositol (Avanti Polar Lipid 840046), dissolved in 3% n-octylglucoside (Roche Diagnostics 10634425001), was used as the lipid substrate for the PI(4)K activity assay. CpPI(4)K was assayed using Transcreener ADP2 FP detection kit (BellBrook 3010) in a black, solid 384-well plate (Corning 3575). The final assay volume was 10 μl and contained 3 nM of the respective CpPI(4)K construct in 10 mM Tris, pH 7.5, 1 mM DTT, 3 μM ATP, 5 mM Mn2+, 0.05% Triton X-100 and 10 μM phosphatidylinositol/octylglucoside. The enzyme reaction was performed for 50 minutes at room temperature and was stopped by adding 10 μl of detection mix containing 1× stop buffer (50 mM HEPES, pH7.5, 400 mM NaCl, 20 mM EDTA, and 0.02% Brij-35), 2 nM AMP Alexa Fluor 633 tracer, and 20 μg ml^−1 ADP antibody. Fluorescence polarization measurements were performed on the Infinite M1000 plate reader (Tecan) with λex=635 nm and λem=680 nm (20-nm bandwidth). IC50 values were calculated using Graphpad Prism software.
The inhibitory concentration (IC50) of selected compounds on the C. parvPI(4)K activity is provided in the third column [Cp_PI4K_enz IC50 (μM)] of Table II.

Series [1] is described as follows: Cytotoxicity against HepG2. In kind it is cell-based. To be noted: human, HepG2 cells (ATCC HB-8065), 5 days exposure. A digest of the protocol: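 Cells seeded at 10^5 per well, held 24 h at 37 °C, then exposed to two-fold serial dilutions of compound for 5 days. Viability read with Cell Proliferation Kit II (XTT); values reported as CC50.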

Molecules are shown by their SMILES. Where only a bound is given, the exact number is not on record here.

Our source for the IC50 and CC50 values is patent US20190030009A1, “COMPOUNDS AND COMPOSITIONS FOR THE TREATMENT OF CRYPTOSPORIDIOSIS” (Novartis AG, priority 2016, published 2019).

Chain of C. parvum PI(4)K (Q5CVD3 entry or part of it): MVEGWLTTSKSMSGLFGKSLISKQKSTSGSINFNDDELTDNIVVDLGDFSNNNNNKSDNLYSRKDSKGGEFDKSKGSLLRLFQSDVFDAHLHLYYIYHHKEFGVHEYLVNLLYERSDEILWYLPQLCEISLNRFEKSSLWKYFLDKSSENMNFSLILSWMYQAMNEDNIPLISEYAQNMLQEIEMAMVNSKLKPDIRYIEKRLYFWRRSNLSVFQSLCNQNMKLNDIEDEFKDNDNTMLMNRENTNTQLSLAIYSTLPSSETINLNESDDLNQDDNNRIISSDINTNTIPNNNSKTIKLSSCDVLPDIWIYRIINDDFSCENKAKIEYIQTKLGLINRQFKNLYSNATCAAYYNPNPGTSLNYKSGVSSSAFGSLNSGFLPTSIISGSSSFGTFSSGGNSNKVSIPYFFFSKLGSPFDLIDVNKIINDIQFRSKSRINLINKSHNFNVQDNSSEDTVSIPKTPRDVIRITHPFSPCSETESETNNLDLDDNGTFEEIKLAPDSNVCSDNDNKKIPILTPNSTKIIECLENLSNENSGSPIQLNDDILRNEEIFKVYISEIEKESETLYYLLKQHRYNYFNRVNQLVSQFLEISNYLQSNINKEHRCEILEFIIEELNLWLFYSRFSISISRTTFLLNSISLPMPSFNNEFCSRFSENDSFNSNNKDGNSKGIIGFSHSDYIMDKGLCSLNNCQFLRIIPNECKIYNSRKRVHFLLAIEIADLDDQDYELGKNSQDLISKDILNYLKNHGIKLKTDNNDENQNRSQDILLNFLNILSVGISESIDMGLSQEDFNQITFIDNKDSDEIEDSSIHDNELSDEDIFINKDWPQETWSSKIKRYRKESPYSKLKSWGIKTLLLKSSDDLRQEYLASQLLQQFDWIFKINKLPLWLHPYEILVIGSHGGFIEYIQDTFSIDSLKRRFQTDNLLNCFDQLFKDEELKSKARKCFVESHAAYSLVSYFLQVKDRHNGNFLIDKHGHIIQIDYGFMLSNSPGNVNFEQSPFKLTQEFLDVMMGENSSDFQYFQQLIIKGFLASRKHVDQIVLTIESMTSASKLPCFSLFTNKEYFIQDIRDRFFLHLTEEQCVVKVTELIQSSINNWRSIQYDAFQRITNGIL

By IC50 is commonly meant the point on the concentration scale where inhibition reaches its midpoint. Usually CC50 stands for the concentration at which the toxic effect on the cells reaches its halfway point. Read a high CC50 as better tolerance by the cells. In turn, `CNC(=O)c1ccc(-c2cnn3ccc(C(=O)N(c4ccc(C#N)cn4)C(C)C)cc23)cc1` [Example 91] showed an IC50 at C. parvum PI(4)K of 21 nM. Also, the CC50 at 5 days in series [1] came to 18700 nM.

`CNC(=O)c1ccc(-c2cnn3ccc(C(=O)N(c4ccc(Cl)cn4)C4CC4)cc23)cc1` [Example 124] registered a 50% inhibitory concentration (IC50) at C. parvum PI(4)K of 14 nM. Besides, the midpoint of cytotoxicity in series [1], the CC50 at 5 days, lay at 21000 nM.

Consider `CNC(=O)c1ccc(-c2cnn3ccc(C(=O)N(NC)c4ccc(C#N)cc4)cc23)cn1` [Example 92], for which the IC50 at C. parvum PI(4)K came to 57 nM. Also, the cytotoxic concentration (CC50) at 5 days in series [1] was 8520 nM.

Regarding `CCN(C(=O)c1ccn2ncc(-c3ccc(C(=O)NC)nc3)c2c1)c1ccc(C#N)cn1` [Example 150], at C. parvum PI(4)K, the IC50 worked out at 219 nM. In series [1], this molecule gave a CC50 at 5 days of 9820 nM.

For the molecule `N#Cc1ccc(N(C(=O)c2ccn3ncc(-c4ccc(C(=O)NC5CC5)cc4)c3c2)C2CC2)nc1` [Example 123], on C. parvum PI(4)K, the half-maximal inhibitory concentration (IC50) is 38 nM. In addition, the CC50 at 5 days in series [1] was 17200 nM.

Consider `CNC(=O)c1ccc(-c2cnn3ccc(N(C)C(=O)c4ccc(C#N)cn4)cc23)cc1` [Example 94], for which the IC50 against C. parvum PI(4)K was 117 nM. For the same molecule, the 50% cytotoxic concentration (CC50) at 5 days in series [1] was determined as 31200 nM.

As for `CCN(C(=O)c1ccn2ncc(-c3ccc(C(=O)NC)cc3)c2c1)c1ccc(C#N)cn1` [Example 90], at C. parvum PI(4)K, the IC50 came to 8 nM. Further, the midpoint of cytotoxicity in series [1], the CC50 at 5 days, lay at 14800 nM.

Take `CCN(C(=O)c1ccn2ncc(-c3ccc(C(=O)NC)cc3)c2c1)c1ccc(C(F)(F)F)cn1` [Example 96]: inhibition against C. parvum PI(4)K was half-maximal at 3 nM (IC50). Moreover, the midpoint of cytotoxicity in series [1], the CC50 at 5 days, lay at 7140 nM.

At C. parvum PI(4)K, `CCNC(=O)c1ccc(-c2cnn3ccc(C(=O)N(c4ccc(C#N)cn4)C4CC4)cc23)cc1` [Example 127] displayed an IC50 of 3 nM. Moreover, in series [1], the 50% cytotoxic concentration (CC50) at 5 days amounted to 40200 nM.

At C. parvum PI(4)K, `CNC(=O)c1ccc(-c2cnn3ccc(C(=O)N(c4ccc(C#N)cn4)C4CCC4)cc23)cc1` [Example 112] displayed an IC50 of 72 nM. For the same molecule, the 50% cytotoxic concentration (CC50) at 5 days in series [1] was determined as 5020 nM.

Regarding `CC(C)NC(=O)c1ccc(-c2cnn3ccc(C(=O)N(c4ccc(C#N)cn4)C4CC4)cc23)cc1` [Example 121], half-maximal inhibition against C. parvum PI(4)K (IC50) was put at 860 nM. The molecule also displayed a CC50 at 5 days in series [1] of 33200 nM.

For the molecule `CNC(=O)c1ccc(-c2cnn3ccc(C(=O)N(c4ccc(C#N)c(OC)n4)C4CC4)cc23)cc1` [Example 149], at C. parvum PI(4)K, the half-inhibitory concentration (IC50) stood at 4 nM. This molecule registered a CC50 at 5 days in series [1] of 23300 nM.

For `CNC(=O)c1ccc(-c2cnn3ccc(C(=O)N(c4ccc(C(F)(F)F)cn4)C4CCC4)cc23)cc1` [Example 160], the 50% inhibitory concentration (IC50) on C. parvum PI(4)K was 8 nM. Also, in series [1], the midpoint of cytotoxicity, the CC50 at 5 days, lay at 2090 nM.

Take `N#Cc1ccc(N(C(=O)c2ccn3ncc(-c4ccc(C(N)=O)cc4)c3c2)C2CC2)nc1` [Example 120]: the half-inhibitory concentration (IC50) against C. parvum PI(4)K was 40 nM. The same molecule gave a half-maximal cytotoxic concentration (CC50) at 5 days in series [1] of 23700 nM.

On C. parvum PI(4)K, `CNC(=O)c1ccc(-c2cnn3ccc(C(=O)N(c4ccc(C(F)(F)F)cn4)C(C)C)cc23)cc1` [Example 153] registered an IC50 of 6 nM. In series [1], it took 20600 nM to reach half-maximal cytotoxicity (CC50 at 5 days).

Consider `N#Cc1ccc(N(C(=O)c2ccn3ncc(-c4ccc(C(=O)NC5COC5)cc4)c3c2)C2CC2)nc1` [Example 131], for which half-maximal inhibition on C. parvum PI(4)K (IC50) was put at 329 nM. The molecule further yielded a CC50 at 5 days in series [1] of over 50000 nM.
